pIC50, pKi: −log10 of the molar value.
Key:
[1] = target: T1, Histone-lysine N-methyltransferase, H3 lysine-79 specific (Homo sapiens, UniProt Q8TEK3); experiment: Inhibition of DOT1L (2 to 416 residues) (unknown origin) using biotinylated nucleosomes as substrate preincubated for 30 mins followed by substrate addition in presence of [3H-Me]SAM by scintillation proximity assay; settings: for pIC50: read-out: IC50
Target sequence in this assay (Q8TEK3 whole entry, the tested form may be a part): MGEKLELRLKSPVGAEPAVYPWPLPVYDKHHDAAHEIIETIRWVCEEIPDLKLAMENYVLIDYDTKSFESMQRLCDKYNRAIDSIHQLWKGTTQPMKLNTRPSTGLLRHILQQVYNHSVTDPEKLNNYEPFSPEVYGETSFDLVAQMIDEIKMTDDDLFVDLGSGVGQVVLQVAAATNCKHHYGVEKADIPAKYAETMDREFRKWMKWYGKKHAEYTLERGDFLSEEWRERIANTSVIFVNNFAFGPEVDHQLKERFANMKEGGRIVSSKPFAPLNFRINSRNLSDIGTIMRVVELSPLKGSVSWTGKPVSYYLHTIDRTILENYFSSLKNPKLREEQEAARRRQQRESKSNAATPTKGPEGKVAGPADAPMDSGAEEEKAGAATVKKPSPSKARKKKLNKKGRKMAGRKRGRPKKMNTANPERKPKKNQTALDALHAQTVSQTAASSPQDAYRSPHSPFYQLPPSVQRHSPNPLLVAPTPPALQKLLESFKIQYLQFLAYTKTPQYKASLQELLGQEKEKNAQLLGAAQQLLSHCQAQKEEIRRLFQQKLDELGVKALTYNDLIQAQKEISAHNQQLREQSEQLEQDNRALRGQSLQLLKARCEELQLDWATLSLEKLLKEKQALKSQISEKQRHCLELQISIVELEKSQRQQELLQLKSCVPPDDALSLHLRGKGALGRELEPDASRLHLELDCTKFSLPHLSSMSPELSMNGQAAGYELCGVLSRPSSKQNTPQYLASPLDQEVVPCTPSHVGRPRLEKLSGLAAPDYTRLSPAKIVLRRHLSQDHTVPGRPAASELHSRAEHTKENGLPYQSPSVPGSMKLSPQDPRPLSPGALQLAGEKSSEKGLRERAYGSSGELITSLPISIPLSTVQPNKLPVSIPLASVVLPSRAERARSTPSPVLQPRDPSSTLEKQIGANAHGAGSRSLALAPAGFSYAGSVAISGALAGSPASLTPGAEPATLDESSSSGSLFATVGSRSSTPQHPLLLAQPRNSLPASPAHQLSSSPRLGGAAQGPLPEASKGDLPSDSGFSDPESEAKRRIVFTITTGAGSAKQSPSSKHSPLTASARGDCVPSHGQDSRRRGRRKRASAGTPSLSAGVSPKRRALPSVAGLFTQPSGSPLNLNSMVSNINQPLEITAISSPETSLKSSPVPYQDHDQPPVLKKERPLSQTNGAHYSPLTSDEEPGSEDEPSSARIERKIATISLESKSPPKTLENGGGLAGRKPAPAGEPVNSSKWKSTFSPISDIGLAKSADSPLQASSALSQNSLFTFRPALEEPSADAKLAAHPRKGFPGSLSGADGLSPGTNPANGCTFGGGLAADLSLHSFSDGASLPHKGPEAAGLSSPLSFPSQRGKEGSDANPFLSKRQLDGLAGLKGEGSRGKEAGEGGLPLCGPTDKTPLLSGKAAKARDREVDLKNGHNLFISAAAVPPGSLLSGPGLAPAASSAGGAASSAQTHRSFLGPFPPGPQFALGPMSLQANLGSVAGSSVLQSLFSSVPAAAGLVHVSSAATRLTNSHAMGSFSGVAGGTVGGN

[2] = target: T1, Histone-lysine N-methyltransferase, H3 lysine-79 specific; experiment: Inhibition of DOT1L in human HeLa cells assessed as reduction in H3K79me2 level after 72 hrs by ELISA; type: cell-based
Target sequence in this assay (Q8TEK3 whole entry, the tested form may be a part): as above

MV4-11 = experiment: Antiproliferative activity against human MV4-11 cells harboring MLL-AF4 treated for 6 hrs measured after 8 days by Celltiter-Glo reagent based assay; type: functional, cell-based
[3] = target: T1, Histone-lysine N-methyltransferase, H3 lysine-79 specific; experiment: Competitive inhibition of DOT1L (2 to 416 residues) (unknown origin) using biotinylated nucleosomes as substrate preincubated for 30 mins followed by substrate addition in presence of [3H-Me]SAM by scintillation proximity assay
Target sequence in this assay (Q8TEK3 whole entry, the tested form may be a part): as above

[4] = target: T1, Histone-lysine N-methyltransferase, H3 lysine-79 specific; experiment: Inhibition of DOT1L in human MOLM13 cells assessed as suppression of HoxA9 gene after 72 hrs by luciferase reporter gene assay; type: cell-based
Target sequence in this assay (Q8TEK3 whole entry, the tested form may be a part): as above

[5] = target: T1, Histone-lysine N-methyltransferase, H3 lysine-79 specific; experiment: Binding affinity to human Avi-tagged biotinylated DOT1L (2 to 416 residues) assessed as target residence time at 100 nM by surface plasmon resonance assay
Target sequence in this assay (Q8TEK3 whole entry, looked up, the tested form may be a part): as the sequence (Q8TEK3 whole entry, the tested form may be a part) above

N[C@@H]1CCCN(c2ncnc3[nH]ccc23)C1
pIC50 [1]: 3.62

Cc1ncccc1-c1c(Cl)sc2ccc(NC(=O)NCC(=O)NCCCN(C)[C@@H]3CCCN(c4ncnc5[nH]ccc45)C3)cc12
pIC50 [2]: 8.52
pIC50 (MV4-11): 8.30
pKi [3]: 11.70
pIC50 [4]: 7.77
pIC50 [1]: > 10.00
TIME [5]: > 5 h

Nc1ncnc2c1ncn2[C@@H]1O[C@H](CO)[C@@H](O)[C@H]1O [ADENOSINE]
pIC50 [1]: 4.00

CN(CCCNC(=O)CNC(=O)Nc1ccc2ccn(-c3ccccc3Cl)c2c1)[C@@H]1CCCN(c2ncnc3[nH]ccc23)C1
pIC50 [1]: 9.82

O=C(CNC(=O)Nc1ccc2ccn(-c3ccccc3Cl)c2c1)NCCCCN[C@@H]1CCCN(c2ncnc3[nH]ccc23)C1
pIC50 [1]: 8.40

NC(=O)CNC(=O)Nc1ccc2ccn(-c3ccccc3Cl)c2c1
IC50 ([1]; read-out: pIC50 (converted)): 7940 nM

CC(C)N(C[C@H]1O[C@@H](n2cnc3c(N)ncnc32)[C@H](O)[C@@H]1O)[C@H]1C[C@@H](CCc2nc3cc(C(C)(C)C)ccc3[nH]2)C1 [PINOMETOSTAT]
pIC50 (MV4-11): 7.82
TIME [5]: > 5 h

CN[C@@H]1CCCN(c2ncnc3[nH]ccc23)C1
pIC50 [1]: 3.85

O=C(CNC(=O)Nc1ccc2ccn(-c3ccccc3Cl)c2c1)NCCCN[C@@H]1CCCN(c2ncnc3[nH]ccc23)C1
pIC50 [1]: 8.40

— ChEMBL document CHEMBL4002645, “Discovery of Potent, Selective, and Structurally Novel Dot1L Inhibitors by a Fragment Linking Approach” (ACS Med Chem Lett, 2017)
